Data as given in patent US20040192751A1, “Amino acid composition for ameliorating liver failure” (priority 2001, published 2004).

Assays:
[1] = system: mice in which alcoholic functional disorders of a liver were developed; test: Serum GOT concentration 12 hours after ethanol administration in mice pre-administered amino acid compositions; type: in vivo; settings: judged from GOT and GPT values 12 h after ethanol
Procedure: In the present Examples, outbreak and healing of functional disorders of a liver were judged by employing GOT (Glutamic Oxaloacetic Transaminase), GPT (Glutamic Pyruvic Transaminase), total cholesterol and triglyceride which are indexes for functional disorders of the liver.
(§1) Measurements were conducted using a clinical diagnosis kit available from Wako Pure Chemical Industries, Ltd.
The following reagents were used for measurement of GOT.
The action of the substrate enzyme liquid to a specimen to be measured generates glutamic acid and oxalacetic acid from L-aspartic acid and α-keto glutaric acid, respectively, by means of GOT in the specimen. […]
The hydrogen peroxide thus produced quantitatively and oxidatively condenses the TOOS and 4-aminoantipyrine to generate violet pigment (refer to Formula 1) by the action of the co-existing peroxidase (POD).
The active value of the GOT in the specimen is measured by the violet absorbance. The ascorbic acid contained in the specimen is decomposed by the ascorbic acid oxidase contained in the substrate enzyme liquid, thereby affecting little influence on the measured value. […]
After a standard specimen having a known concentration prepared by using the standard liquid was preliminarily heated and the substrate buffer was added thereto, the absorbance of the standard specimen was measured and a calibration curve was prepared using the measured values. […]

[2] = system: mice in which alcoholic functional disorders of a liver were developed; test: Total cholesterol amount in the liver 12 hours after ethanol administration; type: in vivo; settings: 12 hours following the ethanol administration; control = no administration
Procedure: as §1
The following reagents were used for the measurement of the total cholesterol.
The action of the color generating agent to a specimen to be measured decomposes the cholesterols into the liberated cholesterols and fatty acids by the action of the cholesterol esterase. The cholesterols thus generated together with the liberated cholesterols already existing are oxidized to produce hydrogen peroxide by means of the action of the cholesterol oxidase. The hydrogen peroxide thus produced quantitatively and oxidatively condenses the phenols and 4-aminoantipyrine to generate red pigment (red quinone-based pigment, refer to Formula 3) by the action of the peroxidase (POD).
The concentration of the total cholesterol in the specimen was determined by measuring the red absorbance.
After 0.01 ml of the specimen was dissolved in isopropanol, 1.5ml of the color producing agent was added therein followed by heating at 37° C. for 10 minutes under sufficient agitation. The absorbance of the specimen at 505 nm was measured by using a blind specimen as reference by means of a spectrophotometer. […]

Structure (SMILES) | action for improving functional disorders of the liver using GOT and GPT as the indexes [1] | total cholesterol in the liver, compared with control (FIG. 5) [2]
N[C@@H](Cc1ccc(O)cc1)C(=O)O [0.25% Tyr, tyrosine] | next most effective | values lower than those of the control
N[C@@H](Cc1c[nH]c2ccccc12)C(=O)O [2% Trp, tryptophane] | next most effective | values lower than those of the control
